Measurements reported in ChEMBL document CHEMBL1201861, “Genomics of Drug Sensitity in Cancer screening data, Wellcome Trust Sanger Institute”.

Tests used:
[1] = system: NCI-H522; assay: cells; format: functional, cell-based; settings: Homo sapiens;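 also: cell viability assay measuring growth inhibition of human NCI-H522 cells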
Description: SANGER: Inhibition of human NCI-H522 cell growth in a cell viability assay.

[2] = system: BFTC-909; assay: cells; format: functional, cell-based; settings: Homo sapiens
Description: SANGER: Inhibition of human BFTC-909 cell growth in a cell viability assay.

[3] = system: OAW-28; assay: cells; format: functional, cell-based; settings: Homo sapiens;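 also: growth inhibition of OAW-28 cells, read out with a cell viability assay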
Description: SANGER: Inhibition of human OAW-28 cell growth in a cell viability assay.

[4] = system: TCC-SUP; assay: cells; format: functional, cell-based; settings: Homo sapiens;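 also: growth inhibition of TCC-SUP cells, read out with a cell viability assay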
Description: SANGER: Inhibition of human TCCSUP cell growth in a cell viability assay.

[5] = system: SAOS-2; assay: cells; format: functional, cell-based; settings: Homo sapiens;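 also: growth inhibition of human Saos-2 cells determined by a cell viability assay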
Description: SANGER: Inhibition of human Saos-2 cell growth in a cell viability assay.

[6] = system: RT-112; assay: cells; format: functional, cell-based; settings: Homo sapiens
Description: SANGER: Inhibition of human RT-112 cell growth in a cell viability assay.

[7] = system: SK-LU-1; assay: cells; format: functional, cell-based; settings: Homo sapiens;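 also: cell viability assay measuring growth inhibition of human SK-LU-1 cells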
Description: SANGER: Inhibition of human SK-LU-1 cell growth in a cell viability assay.

[8] = system: CHL-1; assay: cells; format: functional, cell-based; settings: Homo sapiens;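 also: cell growth inhibition, read out with a cell viability assay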
Description: SANGER: Inhibition of human CHL-1 cell growth in a cell viability assay.

[9] = system: KOSC-2; assay: cells; format: functional, cell-based; settings: Homo sapiens;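 also: growth inhibition of KOSC-2 cells, read out by a cell viability assay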
Description: SANGER: Inhibition of human KOSC-2 cell growth in a cell viability assay.

[10] = system: Huh-7; assay: cells; format: functional, cell-based; settings: Homo sapiens;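 also: HuH-7 cell growth inhibition, read out with a cell viability assay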
Description: SANGER: Inhibition of human HuH-7 cell growth in a cell viability assay.

[11] = system: MKN-45; assay: cells; format: functional, cell-based; settings: Homo sapiens;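 also: growth inhibition of human MKN-45 cells, measured with a cell viability assay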
Description: SANGER: Inhibition of human MKN45 cell growth in a cell viability assay.

[12] = system: UMUC3; assay: cells; format: functional, cell-based; settings: Homo sapiens;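 also: growth inhibition of human UM-UC-3 cells, read out with a cell viability assay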
Description: SANGER: Inhibition of human UM-UC-3 cell growth in a cell viability assay.

[13] = system: T98G; assay: cells; format: functional, cell-based; settings: Homo sapiens;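 also: growth inhibition of T98G cells, read out by a cell viability assay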
Description: SANGER: Inhibition of human T98G cell growth in a cell viability assay.

[14] = system: SW1417; assay: cells; format: functional, cell-based; settings: Homo sapiens;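 also: growth inhibition of human SW1417 cells, read out with a cell viability assay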
Description: SANGER: Inhibition of human SW1417 cell growth in a cell viability assay.

[15] = system: KYSE-140; assay: cells; format: functional, cell-based; settings: Homo sapiens;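 also: cell viability assay measuring growth inhibition in human KYSE-140 cells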
Description: SANGER: Inhibition of human KYSE-140 cell growth in a cell viability assay.

[16] = system: CAL-62; assay: cells; format: functional, cell-based; settings: Homo sapiens;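 also: growth inhibition of CAL-62 cells, read out with a cell viability assay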
Description: SANGER: Inhibition of human CAL-62 cell growth in a cell viability assay.

[17] = system: HT55; assay: cells; format: functional, cell-based; settings: Homo sapiens;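 also: cell viability readout measuring growth inhibition of human HT55 cells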
Description: SANGER: Inhibition of human HT55 cell growth in a cell viability assay.

[18] = system: NCI-H596; assay: cells; format: functional, cell-based; settings: Homo sapiens;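 also: growth inhibition of NCI-H596 cells, read out with a cell viability assay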
Description: SANGER: Inhibition of human NCI-H596 cell growth in a cell viability assay.

[19] = system: KYSE-180; assay: cells; format: functional, cell-based; settings: Homo sapiens;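 also: growth inhibition of KYSE-180 cells, read out with a cell viability assay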
Description: SANGER: Inhibition of human KYSE-180 cell growth in a cell viability assay.

[20] = system: 647-V; assay: cells; format: functional, cell-based; settings: Homo sapiens;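 also: growth inhibition of 647-V cells, read out with a cell viability assay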
Description: SANGER: Inhibition of human 647-V cell growth in a cell viability assay.

[21] = system: A673; assay: cells; format: functional, cell-based; settings: Homo sapiens;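 also: growth inhibition of human A673 cells, read out through a cell viability assay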
Description: SANGER: Inhibition of human A673 cell growth in a cell viability assay.

[22] = system: NCI-H358; assay: cells; format: functional, cell-based; settings: Homo sapiens;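 also: growth inhibition of NCI-H358 human cells, read out with a cell viability assay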
Description: SANGER: Inhibition of human NCI-H358 cell growth in a cell viability assay.

[23] = system: YKG-1; assay: cells; format: functional, cell-based; settings: Homo sapiens;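 also: cell growth inhibition, read out with a viability assay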
Description: SANGER: Inhibition of human YKG-1 cell growth in a cell viability assay.

[24] = system: SW1088; assay: cells; format: functional, cell-based; settings: Homo sapiens;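 also: growth inhibition of human SW1088 cells, read out by a cell viability assay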
Description: SANGER: Inhibition of human SW1088 cell growth in a cell viability assay.

[25] = system: NCI-H1755; assay: cells; format: functional, cell-based; settings: Homo sapiens;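 also: cell viability readout used to measure growth inhibition of NCI-H1755 cells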
Description: SANGER: Inhibition of human NCI-H1755 cell growth in a cell viability assay.

[26] = system: SK-HEP1; assay: cells; format: functional, cell-based, SK-HEP-1; settings: Homo sapiens;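 also: cell viability readout used to quantify reduction in proliferation of human SK-HEP-1 cells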
Description: SANGER: Inhibition of human SK-HEP-1 cell growth in a cell viability assay.

[27] = system: HT-1080; assay: cells; format: functional, cell-based; settings: Homo sapiens
Description: SANGER: Inhibition of human HT-1080 cell growth in a cell viability assay.

[28] = system: KYSE-450; assay: cells; format: functional, cell-based; settings: Homo sapiens;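 also: cell growth inhibition measured by a viability assay in human KYSE-450 cells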
Description: SANGER: Inhibition of human KYSE-450 cell growth in a cell viability assay.

[29] = system: MG-63; assay: cells; format: functional, cell-based; settings: Homo sapiens;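 also: growth inhibition of human MG-63 cells, read out with a cell viability assay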
Description: SANGER: Inhibition of human MG-63 cell growth in a cell viability assay.

[30] = system: HCT-15; assay: cells; format: functional, cell-based; settings: Homo sapiens;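 also: cell viability readout, IC50 reflecting suppression of HCT-15 cell growth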
Description: SANGER: Inhibition of human HCT-15 cell growth in a cell viability assay.

[31] = system: MFE-280; assay: cells; format: functional, cell-based; settings: Homo sapiens;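 also: growth inhibition of MFE-280 cells, determined with a cell viability readout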
Description: SANGER: Inhibition of human MFE-280 cell growth in a cell viability assay.

[32] = system: MKN-1; assay: cells; format: functional, cell-based; settings: Homo sapiens;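 also: growth inhibition of human MKN1 cells, read out by a cell viability measurement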
Description: SANGER: Inhibition of human MKN1 cell growth in a cell viability assay.

[33] = system: NCI-H1993; assay: cells; format: functional, cell-based; settings: Homo sapiens;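 also: growth inhibition of the cancer cell line, assessed with a cell viability assay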
Description: SANGER: Inhibition of human NCI-H1993 cell growth in a cell viability assay.

[34] = system: EW-22; assay: cells; format: functional, cell-based; settings: Homo sapiens;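 also: growth inhibition of the EW-22 cell line, measured with a cell viability readout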
Description: SANGER: Inhibition of human EW-22 cell growth in a cell viability assay.

[35] = system: KP-4; assay: cells; format: functional, cell-based; settings: Homo sapiens;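 also: human KP-4 cells, with growth inhibition read out through a cell viability assay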
Description: SANGER: Inhibition of human KP-4 cell growth in a cell viability assay.

[36] = system: KYSE-270; assay: cells; format: functional, cell-based; settings: Homo sapiens;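 also: cell growth inhibition measured with a viability assay in the human KYSE-270 line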
Description: SANGER: Inhibition of human KYSE-270 cell growth in a cell viability assay.

[37] = system: Capan-2; assay: cells; format: functional, cell-based; settings: Homo sapiens;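 also: Capan-2 cell growth inhibition, read out with a viability assay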
Description: SANGER: Inhibition of human Capan-2 cell growth in a cell viability assay.

[38] = system: AU565; assay: cells; format: functional, cell-based; settings: Homo sapiens;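 also: cell viability assay measuring growth inhibition of human AU565 cells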
Description: SANGER: Inhibition of human AU565 cell growth in a cell viability assay.

[39] = system: OVCAR-3; assay: cells; format: functional, cell-based; settings: Homo sapiens;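 also: growth inhibition of human OVCAR-3 cells, determined by a cell viability assay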
Description: SANGER: Inhibition of human OVCAR-3 cell growth in a cell viability assay.

[40] = system: NCI-H2170; assay: cells; format: functional, cell-based; settings: Homo sapiens;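 also: cell viability assay measuring growth inhibition of human NCI-H2170 cancer cells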
Description: SANGER: Inhibition of human NCI-H2170 cell growth in a cell viability assay.

[41] = system: P12-Ichikawa; assay: cells; format: functional, cell-based; settings: Homo sapiens
[42] = system: JEG-3; assay: cells; format: functional, cell-based; settings: Homo sapiens;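 also: growth inhibition of human JEG-3 cells, read out with a cell viability assay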
Description: SANGER: Inhibition of human JEG-3 cell growth in a cell viability assay.

[43] = system: OVCAR-8; assay: cells; format: functional, cell-based; settings: Homo sapiens;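 also: growth inhibition of human OVCAR-8 cells, read out by a cell viability assay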
Description: SANGER: Inhibition of human OVCAR-8 cell growth in a cell viability assay.

[44] = system: SW1783; assay: cells; format: functional, cell-based; settings: Homo sapiens
Description: SANGER: Inhibition of human SW1783 cell growth in a cell viability assay.

[45] = system: SNU-387; assay: cells; format: functional, cell-based; settings: Homo sapiens
Description: SANGER: Inhibition of human SNU-387 cell growth in a cell viability assay.

[46] = system: ME-180; assay: cells; format: functional, cell-based; settings: Homo sapiens;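 also: cell viability assay measuring growth inhibition of ME-180 cells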
Description: SANGER: Inhibition of human ME-180 cell growth in a cell viability assay.

[47] = system: NCI-H2009; assay: cells; format: functional, cell-based; settings: Homo sapiens;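 also: cell viability assay measuring inhibition of NCI-H2009 cell growth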
Description: SANGER: Inhibition of human NCI-H2009 cell growth in a cell viability assay.

[48] = system: HT-3; assay: cells; format: functional, cell-based; settings: Homo sapiens;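 also: growth inhibition measured with a cell viability readout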
Description: SANGER: Inhibition of human HT-3 cell growth in a cell viability assay.

[49] = system: COLO-792; assay: cells; format: functional, cell-based; settings: Homo sapiens
Description: SANGER: Inhibition of human COLO-792 cell growth in a cell viability assay.

[50] = system: MKN-28; assay: cells; format: functional, cell-based; settings: Homo sapiens;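 also: cell viability assay read-out, IC50 reflects suppression of growth of human MKN-28 cells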
Description: SANGER: Inhibition of human MKN28 cell growth in a cell viability assay.

[51] = system: NCI-H1563; assay: cells; format: functional, cell-based; settings: Homo sapiens;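 also: growth inhibition of human NCI-H1563 cells, read out with a cell viability assay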
Description: SANGER: Inhibition of human NCI-H1563 cell growth in a cell viability assay.

[52] = system: NCI-H2342; assay: cells; format: functional, cell-based; settings: Homo sapiens;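 also: growth inhibition of the cancer cell line, determined with a cell viability assay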
Description: SANGER: Inhibition of human NCI-H2342 cell growth in a cell viability assay.

[53] = system: SIG-M5; assay: cells; format: functional, cell-based; settings: Homo sapiens;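 also: cell viability assay read-out, measuring how strongly growth of cultured human SIG-M5 cells is inhibited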
Description: SANGER: Inhibition of human SIG-M5 cell growth in a cell viability assay.

[54] = system: SIMA; assay: cells; format: functional, cell-based; settings: Homo sapiens;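 also: growth inhibition of SIMA cells, measured with a cell viability readout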
Description: SANGER: Inhibition of human SIMA cell growth in a cell viability assay.

[55] = system: NCI-H64; assay: cells; format: functional, cell-based; settings: Homo sapiens;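 also: growth inhibition of NCI-H64 cells, read out with a cell viability assay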
Description: SANGER: Inhibition of human NCI-H64 cell growth in a cell viability assay.

[56] = system: SU-DHL-1; assay: SANGER: Inhibition of human SU-DHL-1 cell growth in a cell viability assay.; format: functional, cell-based
[57] = system: MONO-MAC-6; assay: cells; format: functional, cell-based; settings: Homo sapiens;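 also: cell viability assay measuring growth inhibition of human MONO-MAC-6 cells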
Description: SANGER: Inhibition of human MONO-MAC-6 cell growth in a cell viability assay.

[58] = system: SCC-3; assay: cells; format: functional, cell-based; settings: Homo sapiens
Description: SANGER: Inhibition of human SCC-3 cell growth in a cell viability assay.

[59] = system: TE-441-T; assay: cells; format: functional, cell-based; settings: Homo sapiens
Description: SANGER: Inhibition of human TE-441-T cell growth in a cell viability assay.

[60] = system: NCI-H2196; assay: cells; format: functional, cell-based; settings: Homo sapiens
Description: SANGER: Inhibition of human NCI-H2196 cell growth in a cell viability assay.

[61] = system: COR-L279; assay: SANGER: Inhibition of human COR-L279 cell growth in a cell viability assay.; format: functional, cell-based
[62] = system: EVSA-T; assay: cells; format: functional, cell-based; settings: Homo sapiens
Description: SANGER: Inhibition of human EVSA-T cell growth in a cell viability assay.

[63] = system: TUR; assay: cells; format: functional, cell-based; settings: Homo sapiens
Description: SANGER: Inhibition of human TUR cell growth in a cell viability assay.

[64] = system: LU-165; assay: cells; format: functional, cell-based; settings: Homo sapiens
Description: SANGER: Inhibition of human LU-165 cell growth in a cell viability assay.

[65] = system: NB1; assay: cells; format: functional, cell-based; settings: Homo sapiens
Description: SANGER: Inhibition of human NB1 cell growth in a cell viability assay.

In the case of `CCCS(=O)(=O)Nc1ccc(F)c(C(=O)c2c[nH]c3ncc(Cl)cc23)c1F` [PLX-4720], the IC50 [1] is reported as > 10 µM, the IC50 [2] is reported as > 10 µM and the IC50 [3] is reported as > 10 µM. The IC50 [4] was > 10 µM, the IC50 [5] was > 10 µM and the IC50 [6] was > 10 µM. For the same molecule, the IC50 [7] was > 10 µM, the IC50 [8] was 5.98 µM and the IC50 [9] was > 10 µM. For the same molecule, the IC50 [10] was > 10 µM, the IC50 [11] was > 10 µM and the IC50 [12] was > 10 µM. The IC50 [13] was > 10 µM, the IC50 [14] was > 10 µM and the IC50 [15] was > 10 µM. For the same molecule, the IC50 [16] was > 10 µM, the IC50 [17] was > 10 µM and the IC50 [18] was > 10 µM. The IC50 [19] was > 10 µM, the IC50 [20] was > 10 µM and the IC50 [21] was > 10 µM. For the same molecule, the IC50 [22] was 2.92 µM, the IC50 [23] was > 10 µM and the IC50 [24] was > 10 µM. For the same molecule, the IC50 [25] was > 10 µM, the IC50 [26] was > 10 µM and the IC50 [27] was 6.11 µM. For the same molecule, the IC50 [28] was > 10 µM, the IC50 [29] was > 10 µM and the IC50 [30] was > 10 µM. For the same molecule, the IC50 [31] was > 10 µM, the IC50 [32] was > 10 µM and the IC50 [33] was > 10 µM. For the same molecule, the IC50 [34] was > 10 µM, the IC50 [35] was 2.31 µM and the IC50 [36] was > 10 µM. The IC50 [37] was > 10 µM, the IC50 [38] was > 10 µM and the IC50 [39] was > 10 µM. For the same molecule, the IC50 [40] was > 10 µM, the IC50 [41] was > 10 µM and the IC50 [42] was > 10 µM. The IC50 [43] was > 10 µM, the IC50 [44] was > 10 µM and the IC50 [45] was > 10 µM. The IC50 [46] was > 10 µM, the IC50 [47] was > 10 µM and the IC50 [48] was > 10 µM. The IC50 [49] was > 10 µM, the IC50 [50] was > 10 µM and the IC50 [51] was > 10 µM. For the same molecule, the IC50 [52] was > 10 µM.
In the case of `N#C/C(=C1/Nc2ccccc2S1)c1ccnc(NCCc2cccnc2)n1`, the IC50 [1] is reported as 4.93 µM, the IC50 [2] is reported as > 8 µM and the IC50 [3] is reported as > 8 µM. For the same molecule, the IC50 [4] was > 8 µM, the IC50 [53] was > 8 µM and the IC50 [5] was > 8 µM. For the same molecule, the IC50 [6] was > 8 µM, the IC50 [7] was 4.64 µM and the IC50 [54] was > 8 µM. The IC50 [8] was 6.1 µM, the IC50 [9] was > 8 µM and the IC50 [55] was > 8 µM. For the same molecule, the IC50 [10] was > 8 µM, the IC50 [11] was > 8 µM and the IC50 [12] was > 8 µM. For the same molecule, the IC50 [13] was > 8 µM, the IC50 [56] was > 8 µM and the IC50 [14] was > 8 µM. For the same molecule, the IC50 [57] was > 8 µM, the IC50 [15] was 1.41 µM and the IC50 [16] was 5.89 µM. The IC50 [17] was > 8 µM, the IC50 [18] was > 8 µM and the IC50 [19] was > 8 µM. For the same molecule, the IC50 [20] was > 8 µM, the IC50 [21] was > 8 µM and the IC50 [58] was > 8 µM. The IC50 [22] was 1.9 µM, the IC50 [23] was 3.77 µM and the IC50 [24] was > 8 µM. For the same molecule, the IC50 [25] was > 8 µM, the IC50 [26] was 4.86 µM and the IC50 [27] was > 8 µM. For the same molecule, the IC50 [28] was 1.14 µM, the IC50 [29] was 3.29 µM and the IC50 [30] was > 8 µM. For the same molecule, the IC50 [31] was > 8 µM, the IC50 [59] was > 8 µM and the IC50 [60] was > 8 µM. For the same molecule, the IC50 [32] was 2.9 µM, the IC50 [33] was > 8 µM and the IC50 [35] was 6.43 µM. For the same molecule, the IC50 [36] was 5.97 µM, the IC50 [37] was 6.67 µM and the IC50 [38] was 2.55 µM. For the same molecule, the IC50 [61] was > 8 µM, the IC50 [62] was > 8 µM and the IC50 [39] was > 8 µM. The IC50 [40] was > 8 µM, the IC50 [41] was > 8 µM and the IC50 [42] was > 8 µM. The IC50 [43] was > 8 µM, the IC50 [44] was 6.17 µM and the IC50 [45] was 3.8 µM. The IC50 [46] was > 8 µM, the IC50 [47] was > 8 µM and the IC50 [63] was > 8 µM. The IC50 [64] was > 8 µM, the IC50 [65] was > 8 µM and the IC50 [48] was > 8 µM. The IC50 [49] was > 8 µM, the IC50 [50] was > 8 µM and the IC50 [51] was > 8 µM. For the same molecule, the IC50 [52] was 4.52 µM.
With `Cn1c(=O)n(-c2ccc(C(C)(C)C#N)cc2)c2c3cc(-c4cnc5ccccc5c4)ccc3ncc21` [DACTOLISIB] the IC50 [1] was 0.248 µM, the IC50 [2] was 0.00371 µM and the IC50 [3] was > 2 µM. It also gave an IC50 [4] of 0.0645 µM, an IC50 [5] of 0.179 µM and an IC50 [6] of 0.0197 µM. The IC50 [7] was 0.0262 µM, the IC50 [8] was 0.0155 µM and the IC50 [9] was 0.07 µM. For the same molecule, the IC50 [10] was 0.0184 µM, the IC50 [12] was < 0.00781 µM and the IC50 [13] was 0.0299 µM. For the same molecule, the IC50 [14] was > 2 µM, the IC50 [15] was 0.0506 µM and the IC50 [16] was 0.0369 µM. It also gave an IC50 [17] of 1.31 µM, an IC50 [18] of 0.228 µM and an IC50 [19] of 0.0462 µM. The IC50 [20] was 0.0781 µM, the IC50 [21] was > 2 µM and the IC50 [22] was 1.96 µM. It also gave an IC50 [23] of 0.053 µM, an IC50 [24] of 0.0283 µM and an IC50 [25] of 0.139 µM. It also gave an IC50 [26] of 0.046 µM, an IC50 [27] of 0.0219 µM and an IC50 [28] of 0.0552 µM. It also gave an IC50 [29] of 0.0234 µM, an IC50 [31] of 0.00999 µM and an IC50 [32] of 0.0028 µM. The IC50 [33] was > 2 µM, the IC50 [34] was 0.0462 µM and the IC50 [35] was 0.007 µM. For the same molecule, the IC50 [36] was 0.131 µM, the IC50 [37] was > 2 µM and the IC50 [38] was 0.213 µM. The IC50 [39] was 0.599 µM, the IC50 [40] was 0.115 µM and the IC50 [41] was 0.0151 µM. The IC50 [42] was 0.0841 µM, the IC50 [43] was 0.0313 µM and the IC50 [44] was 0.11 µM. It also gave an IC50 [45] of 0.104 µM, an IC50 [46] of 0.0224 µM and an IC50 [48] of 0.38 µM. The IC50 [49] was 0.354 µM, the IC50 [50] was 1.09 µM and the IC50 [51] was 0.105 µM. It also gave an IC50 [52] of 0.59 µM.
